Experimental data published in US8580918B2, “Peptidic GLP-2 agonists” (Ferring B.V., priority 2009, dated 2013).
Where a SMILES comes first, the peptide text is derived from it. [ ]: non-standard residue; d: D form. dPhe(3-Cl) = N[C@H](Cc1cccc(Cl)c1)C(=O)O; dPhe(4-Cl) = N[C@H](Cc1ccc(Cl)cc1)C(=O)O; dPhe(2-Cl) = N[C@H](Cc1ccccc1Cl)C(=O)O; d2Thi = N[C@H](Cc1cccs1)C(=O)O; d3Thi = N[C@H](Cc1ccsc1)C(=O)O; Nle = CCCC[C@H](N)C(=O)O

Test: Pharmacokinetics in rats after intravenous bolus injection (systemic clearance)
Format: in vivo
Details: rat, plasma, 0.2 mg FB/kg, adult male Sprague-Dawley rats, i.v. bolus, dose 0.20 mg FB/kg, read-out: CL (ml/kg/min) Average
Description: Pharmacokinetic (PK) parameters of illustrative agonists of the GLP-2 receptor were determined in adult male Sprague-Dawley rats post intravenous bolus injection of compounds at doses of 0.1-1.0 mg/kg. Three or four doubly cannulated animals per compound were dosed via jugular vein, blood samples were collected at several intervals via carotid artery, and plasma samples were prepared from whole blood using K2EDTA as anticoagulant. Subsequent bioanalysis of samples included compound extraction and plasma concentration determination using standard LC/MS/MS methods. Analyte concentration was calculated from internal standard normalized peak area and calibration curves.
For calculation of PK parameters the compound concentration-time curves were analyzed with the noncompartmental data analysis software package PK Solutions 2.0™ (Summit Research Services, Montrose Colo.). The systemic clearance per kg body weight (CL) was calculated as the dose per kg body weight divided by the AUC extrapolated to infinity based on trapezoid calculation (AUC∞). Values reported are the arithmetic mean and standard deviation from the number of animals used for each compound as indicated on Table 3.

| Structure (SMILES) | clearance |
| --- | --- |
| CCCC[C@H](NC(=O)[C@H](CCC(=O)O)NC(=O)[C@H](CC(=O)O)NC(=O)[C@H](CO)NC(=O)[C@H](Cc1ccccc1)NC(=O)[C@H](CO)NC(=O)CNC(=O)[C@H](CC(=O)O)NC(=O)CNC(=O)[C@@H](N)Cc1cnc[nH]1)C(=O)N[C@H](Cc1ccc(Cl)cc1)C(=O)N[C@H](C(=O)N[C@H](C(=O)N[C@@H](CC(C)C)C(=O)N[C@@H](CC(=O)O)C(=O)N[C@@H](CC(N)=O)C(=O)N[C@@H](CC(C)C)C(=O)N[C@@H](C)C(=O)N[C@@H](C)C(=O)N[C@@H](CCCNC(=N)N)C(=O)N[C@@H](CC(=O)O)C(=O)N[C@@H](Cc1ccccc1)C(=O)N[C@H](C(=O)N[C@@H](CC(N)=O)C(=O)N[C@@H](Cc1c[nH]c2ccccc12)C(=O)N[C@@H](CC(C)C)C(=O)N[C@H](C(=O)N[C@@H](CCC(N)=O)C(=O)N[C@H](C(=O)N[C@@H](CCCCN)C(N)=O)[C@@H](C)O)[C@@H](C)CC)[C@@H](C)CC)[C@@H](C)CC)[C@@H](C)O [Compound 29, [Gly2,Nle10,D-Cpa11] hGLP-2 (1-30)-NH2] (H-HGDGSFSDE[Nle][dPhe(4-Cl)]TILDNLAARDFINWLIQTK-NH2) | 0.51 mL/kg/min |
| CCCC[C@H](NC(=O)[C@H](CCC(=O)O)NC(=O)[C@H](CC(=O)O)NC(=O)[C@H](CO)NC(=O)[C@H](Cc1ccccc1)NC(=O)[C@H](CO)NC(=O)CNC(=O)[C@H](CC(=O)O)NC(=O)CNC(=O)[C@@H](N)Cc1c[nH]cn1)C(=O)N[C@H](Cc1c[nH]c2ccccc12)C(=O)N[C@H](C(=O)N[C@H](C(=O)N[C@@H](CC(C)C)C(=O)N[C@@H](CC(=O)O)C(=O)N[C@@H](CC(N)=O)C(=O)N[C@@H](CC(C)C)C(=O)N[C@@H](C)C(=O)N[C@@H](C)C(=O)N[C@@H](CCCNC(=N)N)C(=O)N[C@@H](CC(=O)O)C(=O)N[C@@H](Cc1ccccc1)C(=O)N[C@H](C(=O)N[C@@H](CC(N)=O)C(=O)N[C@@H](Cc1c[nH]c2ccccc12)C(=O)N[C@@H](CC(C)C)C(=O)N[C@H](C(=O)N[C@@H](CCC(N)=O)C(=O)N[C@H](C(=O)N[C@@H](CCCCN)C(N)=O)[C@@H](C)O)[C@@H](C)CC)[C@@H](C)CC)[C@@H](C)CC)[C@@H](C)O [Compound 30, [Gly2,Nle10,D-Trp11] hGLP-2 (1-30)-NH2] (H-HGDGSFSDE[Nle][dW]TILDNLAARDFINWLIQTK-NH2) | 1.2 mL/kg/min |
| CCCC[C@H](NC(=O)[C@H](CCC(=O)O)NC(=O)[C@H](CC(=O)O)NC(=O)[C@H](CO)NC(=O)[C@H](Cc1ccccc1)NC(=O)[C@H](CO)NC(=O)CNC(=O)[C@H](CC(=O)O)NC(=O)CNC(=O)[C@@H](N)Cc1c[nH]cn1)C(=O)N[C@H](Cc1ccc(O)cc1)C(=O)N[C@H](C(=O)N[C@H](C(=O)N[C@@H](CC(C)C)C(=O)N[C@@H](CC(=O)O)C(=O)N[C@@H](CC(N)=O)C(=O)N[C@@H](CC(C)C)C(=O)N[C@@H](C)C(=O)N[C@@H](C)C(=O)N[C@@H](CCCNC(=N)N)C(=O)N[C@@H](CC(=O)O)C(=O)N[C@@H](Cc1ccccc1)C(=O)N[C@H](C(=O)N[C@@H](CC(N)=O)C(=O)N[C@@H](Cc1c[nH]c2ccccc12)C(=O)N[C@@H](CC(C)C)C(=O)N[C@H](C(=O)N[C@@H](CCC(N)=O)C(=O)N[C@H](C(=O)N[C@@H](CCCCN)C(N)=O)[C@@H](C)O)[C@@H](C)CC)[C@@H](C)CC)[C@@H](C)CC)[C@@H](C)O [Compound 39, [Gly2,Nle10,D-Tyr11] hGLP-2 (1-30)-NH2] (H-HGDGSFSDE[Nle][dY]TILDNLAARDFINWLIQTK-NH2) | 4.9 mL/kg/min |
| CCCC[C@H](NC(=O)[C@H](CCC(=O)O)NC(=O)[C@H](CC(=O)O)NC(=O)[C@H](CO)NC(=O)[C@H](Cc1ccccc1)NC(=O)[C@H](CO)NC(=O)CNC(=O)[C@H](CC(=O)O)NC(=O)CNC(=O)[C@@H](N)Cc1c[nH]cn1)C(=O)N[C@H](Cc1ccccc1Cl)C(=O)N[C@H](C(=O)N[C@H](C(=O)N[C@@H](CC(C)C)C(=O)N[C@@H](CC(=O)O)C(=O)N[C@@H](CC(N)=O)C(=O)N[C@@H](CC(C)C)C(=O)N[C@@H](C)C(=O)N[C@@H](C)C(=O)N[C@@H](CCCNC(=N)N)C(=O)N[C@@H](CC(=O)O)C(=O)N[C@@H](Cc1ccccc1)C(=O)N[C@H](C(=O)N[C@@H](CC(N)=O)C(=O)N[C@@H](Cc1c[nH]c2ccccc12)C(=O)N[C@@H](CC(C)C)C(=O)N[C@H](C(=O)N[C@@H](CCC(N)=O)C(=O)N[C@H](C(=O)N[C@@H](CCCCN)C(N)=O)[C@@H](C)O)[C@@H](C)CC)[C@@H](C)CC)[C@@H](C)CC)[C@@H](C)O [Compound 40, [Gly2,Nle10,D-2-Cpa11] hGLP-2 (1-30)-NH2] (H-HGDGSFSDE[Nle][dPhe(2-Cl)]TILDNLAARDFINWLIQTK-NH2) | 0.73 mL/kg/min |
| CCCC[C@H](NC(=O)[C@H](CCC(=O)O)NC(=O)[C@H](CC(=O)O)NC(=O)[C@H](CO)NC(=O)[C@H](Cc1ccccc1)NC(=O)[C@H](CO)NC(=O)CNC(=O)[C@H](CC(=O)O)NC(=O)CNC(=O)[C@@H](N)Cc1c[nH]cn1)C(=O)N[C@H](Cc1ccsc1)C(=O)N[C@H](C(=O)N[C@H](C(=O)N[C@@H](CC(C)C)C(=O)N[C@@H](CC(=O)O)C(=O)N[C@@H](CC(N)=O)C(=O)N[C@@H](CC(C)C)C(=O)N[C@@H](C)C(=O)N[C@@H](C)C(=O)N[C@@H](CCCNC(=N)N)C(=O)N[C@@H](CC(=O)O)C(=O)N[C@@H](Cc1ccccc1)C(=O)N[C@H](C(=O)N[C@@H](CC(N)=O)C(=O)N[C@@H](Cc1c[nH]c2ccccc12)C(=O)N[C@@H](CC(C)C)C(=O)N[C@H](C(=O)N[C@@H](CCC(N)=O)C(=O)N[C@H](C(=O)N[C@@H](CCCCN)C(N)=O)[C@@H](C)O)[C@@H](C)CC)[C@@H](C)CC)[C@@H](C)CC)[C@@H](C)O [Compound 42, [Gly2,Nle10,D-3-Thi11] hGLP-2 (1-30)-NH2] (H-HGDGSFSDE[Nle][d3Thi]TILDNLAARDFINWLIQTK-NH2) | 1.3 mL/kg/min |

More lines, now with the values ahead:

| clearance | Structure (SMILES) |
| --- | --- |
| 1.1 mL/kg/min | CCCC[C@H](NC(=O)[C@H](CCC(=O)O)NC(=O)[C@H](CC(=O)O)NC(=O)[C@H](CO)NC(=O)[C@H](Cc1ccccc1)NC(=O)[C@H](CO)NC(=O)CNC(=O)[C@H](CC(=O)O)NC(=O)CNC(=O)[C@@H](N)Cc1c[nH]cn1)C(=O)N[C@H](Cc1cccs1)C(=O)N[C@H](C(=O)N[C@H](C(=O)N[C@@H](CC(C)C)C(=O)N[C@@H](CC(=O)O)C(=O)N[C@@H](CC(N)=O)C(=O)N[C@@H](CC(C)C)C(=O)N[C@@H](C)C(=O)N[C@@H](C)C(=O)N[C@@H](CCCNC(=N)N)C(=O)N[C@@H](CC(=O)O)C(=O)N[C@@H](Cc1ccccc1)C(=O)N[C@H](C(=O)N[C@@H](CC(N)=O)C(=O)N[C@@H](Cc1c[nH]c2ccccc12)C(=O)N[C@@H](CC(C)C)C(=O)N[C@H](C(=O)N[C@@H](CCC(N)=O)C(=O)N[C@H](C(=O)N[C@@H](CCCCN)C(N)=O)[C@@H](C)O)[C@@H](C)CC)[C@@H](C)CC)[C@@H](C)CC)[C@@H](C)O [Compound 32, [Gly2,Nle10,D-Thi11] hGLP-2 (1-30)-NH2] (H-HGDGSFSDE[Nle][d2Thi]TILDNLAARDFINWLIQTK-NH2) |
| 0.32 mL/kg/min | CCCC[C@H](NC(=O)[C@H](CCC(=O)O)NC(=O)[C@H](CC(=O)O)NC(=O)[C@H](CO)NC(=O)[C@H](Cc1ccccc1)NC(=O)[C@H](CO)NC(=O)CNC(=O)[C@H](CC(=O)O)NC(=O)CNC(=O)[C@@H](N)Cc1c[nH]cn1)C(=O)N[C@H](Cc1cccc(Cl)c1)C(=O)N[C@H](C(=O)N[C@H](C(=O)N[C@@H](CC(C)C)C(=O)N[C@@H](CC(=O)O)C(=O)N[C@@H](CC(N)=O)C(=O)N[C@@H](CC(C)C)C(=O)N[C@@H](C)C(=O)N[C@@H](C)C(=O)N[C@@H](CCCNC(=N)N)C(=O)N[C@@H](CC(=O)O)C(=O)N[C@@H](Cc1ccccc1)C(=O)N[C@H](C(=O)N[C@@H](CC(N)=O)C(=O)N[C@@H](Cc1c[nH]c2ccccc12)C(=O)N[C@@H](CC(C)C)C(=O)N[C@H](C(=O)N[C@@H](CCC(N)=O)C(=O)N[C@H](C(=O)N[C@@H](CCCCN)C(N)=O)[C@@H](C)O)[C@@H](C)CC)[C@@H](C)CC)[C@@H](C)CC)[C@@H](C)O [Compound 44, [Gly2,Nle10,D-3-Cpa11] hGLP-2 (1-30)-NH2] (H-HGDGSFSDE[Nle][dPhe(3-Cl)]TILDNLAARDFINWLIQTK-NH2) |

Same assay, conditions: rat, plasma, adult male Sprague-Dawley rats, i.v. bolus, dose 0.18 mg FB/kg, read-out: CL (ml/kg/min) Average

| clearance | Structure (SMILES) |
| --- | --- |
| 5.6 mL/kg/min | CCCC[C@H](NC(=O)[C@H](CCC(=O)O)NC(=O)[C@H](CC(=O)O)NC(=O)[C@H](CO)NC(=O)[C@H](Cc1ccccc1)NC(=O)[C@H](CO)NC(=O)CNC(=O)[C@H](CC(=O)O)NC(=O)CNC(=O)[C@@H](N)Cc1c[nH]cn1)C(=O)N[C@H](C(=O)N[C@H](C(=O)N[C@H](C(=O)N[C@@H](CC(C)C)C(=O)N[C@@H](CC(=O)O)C(=O)N[C@@H](CC(N)=O)C(=O)N[C@@H](CC(C)C)C(=O)N[C@@H](C)C(=O)N[C@@H](C)C(=O)N[C@@H](CCCNC(=N)N)C(=O)N[C@@H](CC(=O)O)C(=O)N[C@@H](Cc1ccccc1)C(=O)N[C@H](C(=O)N[C@@H](CC(N)=O)C(=O)N[C@@H](Cc1c[nH]c2ccccc12)C(=O)N[C@@H](CC(C)C)C(=O)N[C@H](C(=O)N[C@@H](CCC(N)=O)C(=O)N[C@H](C(=O)N[C@@H](CCCCN)C(N)=O)[C@@H](C)O)[C@@H](C)CC)[C@@H](C)CC)[C@@H](C)CC)[C@@H](C)O)[C@@H](C)CC [Compound 31, [Gly2,Nle10,Ile11] hGLP-2 (1-30)-NH2] (H-HGDGSFSDE[Nle]ITILDNLAARDFINWLIQTK-NH2) |
